Broadly, the Ki is the equilibrium dissociation constant of an inhibitor or competing ligand from its target. Broadly, the IC50 is the concentration needed to halve the response being measured.

Here are results for ten compounds from patent US12441718B2, “Selective angiotensin II compounds” (VICORE PHARMA AB, priority 2021, dated 2025).

“And” between values parts separate entries of the source, which are not always exact repeats. Equal entries are not always repeated. Where two headings read alike, the source gives them in different places.

Data set [1] in a line: Metabolic stability in pooled human liver microsomes. Format: in vitro ADME. The following applies: pooled human liver microsomes 0.5 mg/mL, 1 μM test compound, 37° C., * rows = mean of two runs; for half-life at 1 μM: human, pooled human liver microsomes. As for the experimental part: Pooled human liver microsomes in PBS at a concentration of 0.5 mg/mL was incubated with or without 1 mM NADPH for 70 min at 37° C. Test compound was added after 10 minutes to a final concentration of 1 μM. Samples were withdrawn at 0, 5, 15 and 60 minutes and added to test tubes containing acetonitrile, to stop the reaction, and with terfenadine, used as internal standard. After centrifugation at 10 000×g for 5 minutes the supernatant was diluted 1:1 with 1% formic acid. Samples were separated on a reverse phase column and detected by triple quadrupole MSMS (Agilant model 6540). The concentration of the parent compound at the different time points was measured with an external standard curve using terfenadine as internal standard and the initial metabolic rate in the presence or absence of NADPH calculated.
Background: Microsomes from liver hold many membrane-bound enzymes, among them those of drug oxidation.

In the next data set the target is T1, CYP1A2 (Homo sapiens, UniProt P05177).
T1 construct: isoform-specific substrates incubated with human liver microsomes; tissue Eurofins ITEMG232 (protocol number); host or cells: human liver microsomes
T1 sequence (P05177 whole entry, canonical isoform): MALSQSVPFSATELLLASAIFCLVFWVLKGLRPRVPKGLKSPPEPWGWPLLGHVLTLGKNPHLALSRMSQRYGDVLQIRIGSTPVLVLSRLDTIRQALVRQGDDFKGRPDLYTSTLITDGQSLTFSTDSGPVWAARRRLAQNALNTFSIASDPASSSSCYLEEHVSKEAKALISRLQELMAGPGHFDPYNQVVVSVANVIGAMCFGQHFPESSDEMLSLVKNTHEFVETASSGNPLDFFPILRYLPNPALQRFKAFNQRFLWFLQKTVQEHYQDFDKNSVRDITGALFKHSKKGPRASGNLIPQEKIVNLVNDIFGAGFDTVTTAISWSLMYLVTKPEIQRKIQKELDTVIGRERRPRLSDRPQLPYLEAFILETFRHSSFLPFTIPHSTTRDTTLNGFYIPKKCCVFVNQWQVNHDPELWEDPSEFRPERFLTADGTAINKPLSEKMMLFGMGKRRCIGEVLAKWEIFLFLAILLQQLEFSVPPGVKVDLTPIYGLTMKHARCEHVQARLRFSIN
The data set can be described thus: in vitro. Format: in vitro ADME. The following applies: human liver microsomes, substrate phenacetin.

A further data set addresses T2, CYP2B6 (Homo sapiens, UniProt P20813).
T2 construct: isoform-specific substrates incubated with human liver microsomes; tissue Eurofins ITEMG232 (protocol number); host or cells: human liver microsomes
T2 sequence (P20813 1-491): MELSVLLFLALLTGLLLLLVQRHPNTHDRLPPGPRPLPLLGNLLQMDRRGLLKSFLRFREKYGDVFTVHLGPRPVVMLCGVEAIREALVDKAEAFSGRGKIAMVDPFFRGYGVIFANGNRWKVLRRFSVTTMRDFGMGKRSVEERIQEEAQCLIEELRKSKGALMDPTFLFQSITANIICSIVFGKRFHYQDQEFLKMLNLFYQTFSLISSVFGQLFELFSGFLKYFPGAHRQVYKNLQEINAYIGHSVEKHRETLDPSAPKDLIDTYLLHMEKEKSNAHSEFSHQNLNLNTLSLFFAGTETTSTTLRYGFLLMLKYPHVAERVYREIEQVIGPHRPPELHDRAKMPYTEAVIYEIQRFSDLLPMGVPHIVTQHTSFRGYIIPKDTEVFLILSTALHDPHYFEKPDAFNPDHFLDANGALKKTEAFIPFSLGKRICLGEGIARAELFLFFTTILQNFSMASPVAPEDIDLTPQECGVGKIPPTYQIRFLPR
The experiment in a line: CYP inhibition in human liver microsomes (Eurofins ITEMG232). Format: in vitro ADME. The following applies: probe bupropion, substrate bupropion, read-out: CYP2B6 Inh %.

The next data set deals with T3, CYP2C19 (Homo sapiens, UniProt P33261).
T3 construct: isoform-specific substrates incubated with human liver microsomes; tissue Eurofins ITEMG232 (protocol number); host or cells: human liver microsomes
T3 sequence (P33261 whole entry, canonical isoform): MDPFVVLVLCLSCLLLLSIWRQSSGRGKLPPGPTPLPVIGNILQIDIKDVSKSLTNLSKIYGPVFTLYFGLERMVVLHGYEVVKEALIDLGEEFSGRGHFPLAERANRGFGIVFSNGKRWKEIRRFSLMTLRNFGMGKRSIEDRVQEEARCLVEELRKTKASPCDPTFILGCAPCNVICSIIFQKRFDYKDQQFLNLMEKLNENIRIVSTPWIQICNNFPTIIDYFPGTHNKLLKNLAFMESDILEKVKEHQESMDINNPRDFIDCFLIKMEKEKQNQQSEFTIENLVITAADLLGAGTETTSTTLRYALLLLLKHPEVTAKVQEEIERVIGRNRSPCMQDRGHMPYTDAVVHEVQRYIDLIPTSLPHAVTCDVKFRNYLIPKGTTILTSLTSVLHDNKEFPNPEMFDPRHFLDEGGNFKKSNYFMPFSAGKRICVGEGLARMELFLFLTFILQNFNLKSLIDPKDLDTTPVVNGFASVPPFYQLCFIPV
The description is as above. It is filed as in vitro ADME. As to conditions: substrate omeprazole.

Another data set concerns the target T4, CYP2C8 (Homo sapiens, UniProt P10632).
T4 construct: isoform-specific substrates incubated with human liver microsomes; tissue Eurofins ITEMG232 (protocol number); host or cells: human liver microsomes
T4 sequence (P10632 1-490): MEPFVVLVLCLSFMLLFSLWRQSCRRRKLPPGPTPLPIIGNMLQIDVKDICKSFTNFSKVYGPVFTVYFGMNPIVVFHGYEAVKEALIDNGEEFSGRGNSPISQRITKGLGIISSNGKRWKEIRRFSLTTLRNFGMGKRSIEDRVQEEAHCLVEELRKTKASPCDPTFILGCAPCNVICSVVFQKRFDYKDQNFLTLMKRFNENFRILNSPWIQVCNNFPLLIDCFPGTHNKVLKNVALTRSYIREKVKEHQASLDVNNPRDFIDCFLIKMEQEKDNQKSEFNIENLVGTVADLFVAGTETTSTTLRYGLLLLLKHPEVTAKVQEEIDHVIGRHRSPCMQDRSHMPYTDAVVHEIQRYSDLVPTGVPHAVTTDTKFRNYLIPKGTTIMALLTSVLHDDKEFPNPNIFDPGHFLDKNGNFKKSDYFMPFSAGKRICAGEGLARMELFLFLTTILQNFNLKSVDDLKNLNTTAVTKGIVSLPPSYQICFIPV
Described as above. It is filed as in vitro ADME. The following applies: substrate paclitaxel and amodiaquine.

The target in another data set is T5, CYP2D6 (Homo sapiens, UniProt P10635).
T5 construct: isoform-specific substrates incubated with human liver microsomes; tissue Eurofins ITEMG232 (protocol number); host or cells: human liver microsomes
T5 sequence (P10635 whole entry, canonical isoform): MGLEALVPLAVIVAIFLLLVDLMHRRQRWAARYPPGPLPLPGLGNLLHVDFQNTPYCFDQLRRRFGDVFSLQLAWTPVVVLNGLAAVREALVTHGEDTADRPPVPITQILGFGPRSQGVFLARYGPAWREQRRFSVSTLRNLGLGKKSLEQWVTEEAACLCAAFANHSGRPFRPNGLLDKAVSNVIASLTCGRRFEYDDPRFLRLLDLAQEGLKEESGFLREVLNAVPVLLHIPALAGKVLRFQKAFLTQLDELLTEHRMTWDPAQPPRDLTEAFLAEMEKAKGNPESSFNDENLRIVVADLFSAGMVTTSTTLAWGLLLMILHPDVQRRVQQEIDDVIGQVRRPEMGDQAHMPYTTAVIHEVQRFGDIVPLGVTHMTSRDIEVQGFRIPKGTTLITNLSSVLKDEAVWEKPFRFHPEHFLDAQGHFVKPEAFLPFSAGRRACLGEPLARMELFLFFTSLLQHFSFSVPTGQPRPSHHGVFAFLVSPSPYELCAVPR
The description is as above. It is filed as in vitro ADME. As to conditions: probe dextromethorphan, substrate dextromethorphan, read-out: CYP2D6 Inh %.

The test system of the next data set is CYP3A4&5. The data set can be described thus: in vitro. As to conditions: human, human liver microsomes, probe testosterone.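 Further: Read-out is the metabolite generated from the probe substrate, quantified as HPLC-MS/MS peak area once incubation ends.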
Another data set has as its target CYP2C9 (Homo sapiens, UniProt P11712). The experiment in a line: CYP inhibition in human liver microsomes (Eurofins ITEMG232). Also noted: isoform-specific substrates incubated with human liver microsomes; tissue Eurofins ITEMG232 (protocol number); host or cells: human liver microsomes. As to conditions: substrate diclofenac. Format: in vitro ADME.
For a further data set, the target named is CYP3A4 (Homo sapiens, UniProt P08684). The data set can be described thus: CYP inhibition in human liver microsomes (Eurofins ITEMG232), midazolam substrate. Also on record: isoform-specific substrates incubated with human liver microsomes; tissue Eurofins ITEMG232 (protocol number); host or cells: human liver microsomes. It is filed as in vitro ADME.
CYP3A4, sequence (P08684 whole entry, canonical isoform): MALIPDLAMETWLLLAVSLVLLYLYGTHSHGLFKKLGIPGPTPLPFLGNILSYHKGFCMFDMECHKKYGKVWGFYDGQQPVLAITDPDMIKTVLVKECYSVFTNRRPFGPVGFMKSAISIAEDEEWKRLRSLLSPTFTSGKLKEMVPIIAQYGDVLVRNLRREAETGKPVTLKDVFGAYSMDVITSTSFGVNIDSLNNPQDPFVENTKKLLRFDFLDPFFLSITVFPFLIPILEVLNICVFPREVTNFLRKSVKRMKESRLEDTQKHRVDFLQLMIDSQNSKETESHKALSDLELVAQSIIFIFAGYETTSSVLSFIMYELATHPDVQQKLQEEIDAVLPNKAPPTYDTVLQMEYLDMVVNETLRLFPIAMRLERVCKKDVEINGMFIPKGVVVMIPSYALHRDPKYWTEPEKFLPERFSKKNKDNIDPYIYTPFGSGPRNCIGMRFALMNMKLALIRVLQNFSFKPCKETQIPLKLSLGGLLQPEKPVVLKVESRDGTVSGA
The target in data set [2] is T6, human recombinant AT2 receptor (Homo sapiens, UniProt P50052).
T6 construct: purchased Eurofins ITEM26 (protocol number)
T6 sequence (P50052 1-363): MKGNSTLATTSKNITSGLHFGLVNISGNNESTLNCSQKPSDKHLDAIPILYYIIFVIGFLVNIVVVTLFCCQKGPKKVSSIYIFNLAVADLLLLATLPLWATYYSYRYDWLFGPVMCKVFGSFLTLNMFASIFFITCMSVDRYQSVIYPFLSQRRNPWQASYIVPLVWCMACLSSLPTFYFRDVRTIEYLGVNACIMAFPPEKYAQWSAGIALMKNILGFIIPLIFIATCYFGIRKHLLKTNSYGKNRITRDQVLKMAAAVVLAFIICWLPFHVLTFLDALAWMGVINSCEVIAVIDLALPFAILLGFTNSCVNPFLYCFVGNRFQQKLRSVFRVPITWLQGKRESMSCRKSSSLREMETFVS
The experiment in a line: Binding to AT2 receptor, radiometric scintillation assay (Eurofins ITEM26). As to conditions: ligand 125I CGP 42112A, * rows = mean of runs; for Ki: seven-point dose-response curve; for IC50: test compounds at 1, 10, 100 and 1000 nM, read-out: AT2 GraFit IC50.

Setting [3] is: with 1 mM NADPH, read-out: T1/2, + NaDPH.
Setting [4] is: without NADPH, read-out: T1/2, no NaDPH.

CYP2C9, sequence (P11712 whole entry, canonical isoform): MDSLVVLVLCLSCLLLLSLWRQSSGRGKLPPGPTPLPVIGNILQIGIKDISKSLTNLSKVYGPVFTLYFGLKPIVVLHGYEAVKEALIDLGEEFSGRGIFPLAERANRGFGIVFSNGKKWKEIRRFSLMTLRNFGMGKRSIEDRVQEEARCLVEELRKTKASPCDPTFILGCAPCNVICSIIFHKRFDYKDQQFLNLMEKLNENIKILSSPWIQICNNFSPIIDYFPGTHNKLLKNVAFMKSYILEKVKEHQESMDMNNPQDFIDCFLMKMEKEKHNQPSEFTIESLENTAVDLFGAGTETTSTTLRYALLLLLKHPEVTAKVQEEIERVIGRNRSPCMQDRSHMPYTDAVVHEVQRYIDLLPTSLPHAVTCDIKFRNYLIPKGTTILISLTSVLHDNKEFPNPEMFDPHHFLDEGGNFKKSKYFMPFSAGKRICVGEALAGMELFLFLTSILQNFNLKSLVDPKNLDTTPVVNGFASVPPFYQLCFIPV
Procedure for CYP1A2: The following substrates were used; CYP1A phenacetin, CYP2B36 bupropion, CYP2C8 paclitaxel and amodiaquine, CYP2C9 diclofenac, CYP2C19 omeprazole, CYP2D6 dextromethorphan, CYP3A midazolam and testosterone.
At the end of the incubation, the formation of metabolite was monitored by HPLC-MS/MS as the peak area response.

`CCc1nccn1Cc1ccc(-c2cc(CC(C)C)sc2S(=O)(=O)Nc2ncccn2)cc1F` [Example 45, 3-(4-((2-Ethyl-1H-imidazol-1-yl)methyl)-3-fluorophenyl)-5-isobutyl-N-(pyrimidin-2-yl)thiophene-2-sulfonamide]: the half-life at 1 μM in data set [1] (setting [3]) and in data set [1] (setting [4]) was over 60 min in each case. The inhibition at 10 µM on CYP1A2 (human, microsomes, read-out: CYP1A2 Inh %) was found to be 54%; at CYP2B6, 16%; on CYP2C19 (human, probe omeprazole, read-out: CYP2C19 Inh %), 65%; at CYP2C8 (human, probe paclitaxel and amodiaquine, read-out: CYP2C8 Inh %), 64%; on CYP2D6, 13%; with CYP3A4&5, 62%. Besides, the inhibition at 10 µM on CYP2C9 (human, probe diclofenac, read-out: CYP2C9 Inh %) was 20%; at CYP3A4 (human, probe midazolam, read-out: CYP3A4 midazolam Inh %), 15%.
`CC(C)Cc1ccc(S(=O)(=O)Nc2ccsn2)c(-c2ccc(Cn3ccnc3C(C)(C)C)cc2)c1` [Example 33, 4′-((2-(tert-Butyl)-1H-imidazol-1-yl)methyl)-5-isobutyl-N-(isothiazol-3-yl)-[1,1′-biphenyl]-2-sulfonamide]: the half-life at 1 μM in [1] (setting [3]) was 12 min; in [1] (setting [4]), over 60 min. Moreover, the “T1/2, + NaDPH” value in [1] (with 1 mM NADPH) came to 13 min; in data set [1] (with 1 mM NADPH, listed as Example 33*), 12.5 min. For the same compound, in data set [2], the Ki was 1.13 nM and 7.18 nM and 4.16 nM. Also, the IC50 in [2] was 2.25 nM and 14.4 nM and 8.33 nM.
As for `CC(C)Cc1ccc(S(=O)(=O)Nc2ncccn2)c(-c2ccc(Cn3ccnc3)cc2)c1` [Example 38, 4′-((1H-Imidazol-1-yl)methyl)-5-isobutyl-N-(pyrimidin-2-yl)-[1,1′-biphenyl]-2-sulfonamide], the half-life at 1 μM in data set [1] (setting [3]) amounted to 58 min. Also, the half-life at 1 μM in data set [1] (setting [4]) is over 60 min. In data set [2], the Ki was determined as 1.38 nM and the IC50 was determined as 2.76 nM.
Regarding `COc1cc(NS(=O)(=O)c2ccc(CC(C)C)cc2-c2ccc(Cn3ccnc3C(C)(C)C)cc2)nc(OC)n1` [Example 34, 4′-((2-(tert-Butyl)-1H-imidazol-1-yl)methyl)-N-(2,6-dimethoxypyrimidin-4-yl)-5-isobutyl-[1,1′-biphenyl]-2-sulfonamide], the half-life at 1 μM in data set [1] (setting [3]) was 17 min; in data set [1] (setting [4]) it was over 60 min. Also, the “T1/2, + NaDPH” value in data set [1] (with 1 mM NADPH) is on record as 11 min; in data set [1] (with 1 mM NADPH, listed as Example 34*) it was 14 min. The Ki in data set [2] was 38.3 nM and 24.5 nM and 31.4 nM. The IC50 in data set [2] is 76.6 nM and 49 nM and 62.8 nM.
Turning to `CC(C)Cc1cc(-c2ccc(Cn3ccnc3C(C)C)c(F)c2)c(S(=O)(=O)Nc2ncccn2)s1` [Example 46, 3-(3-Fluoro-4-((2-isopropyl-1H-imidazol-1-yl)methyl)phenyl)-5-isobutyl-N-(pyrimidin-2-yl)thiophene-2-sulfonamide], the half-life at 1 μM in [1] (setting [3]) is over 60 min. The half-life at 1 μM in data set [1] (setting [4]) was over 60 min. For the same compound, in [2], the Ki was 0.33 nM and the IC50 amounted to 0.65 nM.
Regarding `COc1cnc(NS(=O)(=O)c2ccc(CC(C)C)cc2-c2ccc(Cn3ccnc3C(C)(C)C)cc2)nc1` [Example 36, 4′-((2-(tert-Butyl)-1H-imidazol-1-yl)methyl)-5-isobutyl-N-(5-methoxypyrimidin-2-yl)-[1,1′-biphenyl]-2-sulfonamide], the half-life at 1 μM in data set [1] (setting [3]) is 42 min; in [1] (setting [4]), over 60 min. Further, the Ki in [2] was determined as 5.99 nM. Besides, the IC50 in [2] stood at 12 nM.
Taken in the same sequence, the figures for `Cc1nccn1Cc1ccc(-c2cc(CC(C)C)ccc2S(=O)(=O)Nc2ncccn2)cc1` [Example 37, 5-Isobutyl-4′-((2-methyl-1H-imidazol-1-yl)methyl)-N-(pyrimidin-2-yl)-[1,1′-biphenyl]-2-sulfonamide] were over 60 min, over 60 min, 0.58 nM and 1.16 nM.
With `COc1cnc(NS(=O)(=O)c2ccc(CC(C)C)cc2-c2ccc(Cn3ccnc3C(C)(C)C)c(F)c2)nc1` [Example 31, 4′-((2-(tert-Butyl)-1H-imidazol-1-yl)methyl)-3′-fluoro-5-isobutyl-N-(5-methoxy-pyrimidin-2-yl)-[1,1′-biphenyl]-2-sulfonamide], the values for the half-life at 1 μM in [1] (setting [3]) and in data set [1] (setting [4]) were 47 min and over 60 min, respectively. Moreover, the “T1/2, + NaDPH” value in data set [1] (with 1 mM NADPH) is 35 min; in [1] (with 1 mM NADPH, listed as Example 31*), 41 min. The Ki in [2] is 1.21 nM and 1.84 nM and 1.53 nM. Moreover, in [2], the IC50 was 2.43 nM and 3.68 nM and 3.06 nM.
Take `CC(C)Cc1ccc(S(=O)(=O)Nc2ncc(C#N)cn2)c(-c2ccc(Cn3ccnc3C(C)(C)C)cc2)c1` [Example 6, 4′-((2-(tert-Butyl)-1H-imidazol-1-yl)methyl)-N-(5-cyanopyrimidin-2-yl)-5-isobutyl-[1,1′-biphenyl]-2-sulfonamide]: the “CYP1A2 Inh %” value at CYP1A2 (10 μM) is 36.2% and 65.6%. For the same compound, the “CYP2C19 Inh %” value at CYP2C19 (10 μM) is 38.6% and 66.6%. Besides, the “CYP2C8 Inh %” value on CYP2C8 (10 μM) was 49.2% and 95.6%. Besides, on CYP2C9 (10 μM), the “CYP2C9 Inh %” value is 37.1% and 71.9%. The “CYP3A4 midazolam Inh %” value on CYP3A4 (10 μM) is 28.2% and 48.5%.
With `CC(C)Cc1cc(-c2ccc(Cn3ccnc3C3CC3)cc2)c(S(=O)(=O)Nc2ncccn2)s1` [Example 52, 3-(4-((2-Cyclopropyl-1H-imidazol-1-yl)methyl)phenyl)-5-isobutyl-N-(pyrimidin-2-yl)thiophene-2-sulfonamide], the half-life at 1 μM in [1] (setting [3]) is over 60 min. In data set [1] (setting [4]), the half-life at 1 μM was over 60 min. Moreover, in [2], the Ki stood at 0.77 nM and the IC50 turned out to be 1.53 nM.
